From patent US10160729B2, “Hsp70 modulators and methods for making and using the same” (Memorial Sloan Kettering Cancer Center, priority 2014, dated 2018)

Each molecule was assayed on MOLM-13 cells (assay: Caspase cleavage assay (Caspase3, 7 activation)). Conditions: Homo sapiens, 16 h treatment, caspase substrate Z-DEVD-R110, read-out: c* Concentration at which 50% of the maximum signal was achieved (caspase activation).
Format: cell-based
Description: Caspase3, 7 Activation. MOLM-13 cells (30,000 cells/well) were plated in black 96-well plates (Corning Cat. #3603) in 40 μL of RPMI media, and left in an incubator (37° C., 5% CO2) for up to 24 h. Cells were treated for 16 h with compounds or DMSO (control) at desired concentrations in 50 μL of media. Drugs were added in triplicate wells. Following exposure of cells to Hsp70 inhibitors, 50 μL of buffer containing 10 mM HEPES (pH 7.5), 2 mM EDTA, 0.1% CHAPS and the caspase substrate Z-DEVD-R110 at 25 μM was added to each well. Plates were incubated until the signal stabilized and then the fluorescence signal of each well was measured in an Analyst GT microplate reader. The percentage increase in apoptotic cells was calculated by comparison of the fluorescence reading obtained from treated versus control cells.

EC50 [nM] | SMILES
< 200 | COc1cccc(COc2nc(N3CCN(C)CC3)ncc2Sc2ccc(C(N)=O)c(Cl)c2)c1 [compound 108, 2-Chloro-4-((4-((3-methoxybenzyl)oxy)-2-(4-methylpiperazin-1-yl)pyrimidin-5-yl)thio)benzamide]
< 200 | COc1ccc(F)c(COc2nc(N3CCN(C)CC3)ncc2Sc2ccc(C(N)=O)c(Cl)c2)c1 [compound 109]
200 to 400 | COc1cc(F)cc(COc2nc(N3CCN(C)CC3)ncc2Sc2ccc(C(N)=O)c(Cl)c2)c1 [compound 110, 2-Chloro-4-((4-((3-fluoro-5-methoxybenzyl)oxy)-2-(4-methylpiperazin-1-yl)pyrimidin-5-yl)thio)benzamide]
< 200 | COc1cc(COc2nc(N3CCN(C)CC3)ncc2Sc2ccc(C(N)=O)c(Cl)c2)ccc1F [compound 111, 2-Chloro-4-((4-((4-fluoro-3-methoxybenzyl)oxy)-2-(4-methylpiperazin-1-yl)pyrimidin-5-yl)thio)benzamide]
< 200 | COc1c(F)ccc(COc2nc(N3CCN(C)CC3)ncc2Sc2ccc(C(N)=O)c(Cl)c2)c1F [compound 112, 2-Chloro-4-((4-((2,4-difluoro-3-methoxybenzyl)oxy)-2-(4-methylpiperazin-1-yl)pyrimidin-5-yl)thio)benzamide]
< 200 | CN1CCN(c2ncc(Sc3ccc(C(N)=O)c(Cl)c3)c(OCc3ccc(F)c(Cl)c3)n2)CC1 [compound 113, 2-Chloro-4-((4-((3-chloro-4-fluorobenzyl)oxy)-2-(4-methylpiperazin-1-yl)pyrimidin-5-yl)thio)benzamide]
< 200 | CN1CCN(c2ncc(Sc3ccc(C(N)=O)c(Cl)c3)c(OCc3ccc(F)c(Br)c3)n2)CC1 [compound 114, 4-((4-((3-Bromo-4-fluorobenzyl)oxy)-2-(4-methylpiperazin-1-yl)pyrimidin-5-yl)thio)-2-chlorobenzamide]
200 to 400 | CN1CCN(c2ncc(Sc3ccc(C(N)=O)c(Cl)c3)c(OCc3ccc(F)c(C(F)(F)F)c3)n2)CC1 [compound 115, 2-Chloro-4-((4-((4-fluoro-3-(trifluoromethyl)benzyl)oxy)-2-(4-methylpiperazin-1-yl)pyrimidin-5-yl)thio)benzamide]
< 200 | CN1CCN(c2ncc(Sc3ccc(C(N)=O)c(Cl)c3)c(OCc3cccc(N(C)C)c3)n2)CC1 [compound 116, 2-Chloro-4-((4-((3-(dimethylamino)benzyl)oxy)-2-(4-methylpiperazin-1-yl)pyrimidin-5-yl)thio)benzamide]
200 to 400 | CN1CCN(c2ncc(Sc3ccc(C(N)=O)c(Cl)c3)c(OCc3cccc(N)c3)n2)CC1 [compound 117, 4-((4-((3-Aminobenzyl)oxy)-2-(4-methylpiperazin-1-yl)pyrimidin-5-yl)thio)-2-chlorobenzamide]
400 to 1000 | CN1CCN(c2ncc(Sc3ccc(C(N)=O)c(Cl)c3)c(OCc3ccc(F)c(N)c3)n2)CC1 [compound 118, 4-((4-((3-Amino-4-fluorobenzyl)oxy)-2-(4-methylpiperazin-1-yl)pyrimidin-5-yl)thio)-2-chlorobenzamide]
200 to 400 | CN1CCN(c2ncc(Sc3ccc(C(N)=O)c(Cl)c3)c(OCc3cccc(OC(F)F)c3)n2)CC1 [compound 121, 2-Chloro-4-((4-((3-(difluoromethoxy)benzyl)oxy)-2-(4-methylpiperazin-1-yl)pyrimidin-5-yl)thio)benzamide]
200 to 400 | CN1CCN(c2ncc(Sc3ccc(C(N)=O)c(Cl)c3)c(OCc3cccc(O)c3)n2)CC1 [compound 122, 2-Chloro-4-((4-((3-hydroxybenzyl)oxy)-2-(4-methylpiperazin-1-yl)pyrimidin-5-yl)thio)benzamide]
200 to 400 | COc1cccc(COc2nc(N3CCN(C)CC3)ncc2Sc2ccc(C(N)=O)c(Cl)c2)n1 [compound 123, 2-Chloro-4-((4-((6-methoxypyridin-2-yl)methoxy)-2-(4-methylpiperazin-1-yl)pyrimidin-5-yl)thio)benzamide]
< 200 | COc1cc(COc2nc(N3CCN(C)CC3)ncc2Sc2ccc(C(N)=O)c(Cl)c2)ccn1 [compound 124, 2-Chloro-4-((4-((2-methoxypyridin-4-yl)methoxy)-2-(4-methylpiperazin-1-yl)pyrimidin-5-yl)thio)benzamide]
< 200 | COc1cncc(COc2nc(N3CCN(C)CC3)ncc2Sc2ccc(C(N)=O)c(Cl)c2)c1 [compound 125, 2-Chloro-4-((4-((5-methoxypyridin-3-yl)methoxy)-2-(4-methylpiperazin-1-yl)pyrimidin-5-yl)thio)benzamide]
200 to 400 | COc1ccnc(COc2nc(N3CCN(C)CC3)ncc2Sc2ccc(C(N)=O)c(Cl)c2)c1 [compound 126, 2-Chloro-4-((4-((4-methoxypyridin-2-yl)methoxy)-2-(4-methylpiperazin-1-yl)pyrimidin-5-yl)thio)benzamide]
400 to 1000 | CN1CCN(c2ncc(Sc3ccc(C(N)=O)c(Cl)c3)c(OCc3ccc(F)c(O)c3)n2)CC1 [compound 127, 2-Chloro-4-((4-((4-fluoro-3-hydroxybenzyl)oxy)-2-(4-methylpiperazin-1-yl)pyrimidin-5-yl)thio)benzamide]
< 200 | CN1CCN(c2ncc(Sc3ccc(C(N)=O)c(C(F)(F)F)c3)c(OCc3ccc(F)c(Cl)c3)n2)CC1 [compound 132, 4-((4-((3-Chloro-4-fluorobenzyl)oxy)-2-(4-methylpiperazin-1-yl)pyrimidin-5-yl)thio)-2-(trifluoromethyl)benzamide]

The next lines start with the molecule.

SMILES | EC50 [nM]
CN1CCN(c2ncc(Sc3ccc(C(N)=O)c(Br)c3)c(OCc3ccccc3)n2)CC1 [compound 77, 4-((4-(Benzyloxy)-2-(4-methylpiperazin-1-yl)pyrimidin-5-yl)thio)-2-bromobenzamide] | 200 to 400
CN1CCN(c2ncc(Sc3ccc(C(N)=O)c(Cl)c3)c(OCc3ccccc3)n2)CC1 [compound 78, 4-((4-(Benzyloxy)-2-(4-methylpiperazin-1-yl)pyrimidin-5-yl)thio)-2-chlorobenzamide] | 400 to 1000
CN1CCN(c2ncc(Sc3ccc(C(N)=O)c(F)c3)c(OCc3ccccc3)n2)CC1 [compound 79, 4-((4-(Benzyloxy)-2-(4-methylpiperazin-1-yl)pyrimidin-5-yl)thio)-2-fluorobenzamide] | 200 to 400
CN1CCN(c2ncc(Sc3ccc(C(N)=O)c(I)c3)c(OCc3ccccc3)n2)CC1 [compound 80, 4-((4-(Benzyloxy)-2-(4-methylpiperazin-1-yl)pyrimidin-5-yl)thio)-2-iodobenzamide] | 400 to 1000
CN1CCN(c2ncc(Sc3ccc(C(=O)O)cc3)c(OCc3ccccc3)n2)CC1 [compound 81, 4-((4-(Benzyloxy)-2-(4-methylpiperazin-1-yl)pyrimidin-5-yl)thio)benzoic acid] | 1000 to 1200
CNC(=O)c1ccc(Sc2cnc(N3CCN(C)CC3)nc2OCc2ccccc2)cc1 [compound 83, 4-((4-(Benzyloxy)-2-(4-methylpiperazin-1-yl)pyrimidin-5-yl)thio)-N-methylbenzamide] | 400 to 1000
CN1CCN(c2ncc(Sc3ccc(C(=O)N(C)C)cc3)c(OCc3ccccc3)n2)CC1 [compound 84, 4-((4-(Benzyloxy)-2-(4-methylpiperazin-1-yl)pyrimidin-5-yl)thio)-N,N-dimethylbenzamide] | 200 to 400
CN1CCN(c2ncc(Sc3ccc(C(=O)NCN4CCCC4)cc3)c(OCc3ccccc3)n2)CC1 [compound 92, 4-((4-(Benzyloxy)-2-(4-methylpiperazin-1-yl)pyrimidin-5-yl)thio)-N-(pyrrolidin-1-ylmethyl)benzamide] | 400 to 1000
CN1CCN(c2ncc(Sc3ccc(C(=O)NCN4CCCCC4)cc3)c(OCc3ccccc3)n2)CC1 [compound 93, 4-((4-(Benzyloxy)-2-(4-methylpiperazin-1-yl)pyrimidin-5-yl)thio)-N-(piperidin-1-ylmethyl)benzamide] | 1000 to 1200
COc1ccc(COc2nc(N3CCN(C)CC3)ncc2Sc2ccc(C(N)=O)cc2)cc1 [compound 96, 4-((4-((4-Methoxybenzyl)oxy)-2-(4-methylpiperazin-1-yl)pyrimidin-5-yl)thio)benzamide] | 400 to 1000
CN1CCN(c2ncc(Sc3ccc(C(N)=O)cc3)c(OCc3cccc(N=[N+]=[N-])c3)n2)CC1 [compound 101, 4-((4-((3-Azidobenzyl)oxy)-2-(4-methylpiperazin-1-yl)pyrimidin-5-yl)thio)benzamide] | < 200
CN1CCN(c2ncc(Sc3ccc(C(N)=O)cc3)c(NCc3ccccc3)n2)CC1 [compound 102, 4-((4-(Benzylamino)-2-(4-methylpiperazin-1-yl)pyrimidin-5-yl)thio)benzamide] | 200 to 400
CN1CCN(c2ncc(Sc3ccc(C(N)=O)c(C(F)(F)F)c3)c(OCc3cccc(Cl)c3)n2)CC1 [compound 131, 4-((4-((3-Chlorobenzyl)oxy)-2-(4-methylpiperazin-1-yl)pyrimidin-5-yl)thio)-2-(trifluoromethyl)benzamide] | < 200
CN1CCN(c2ncc(Sc3ccc(C(N)=O)c(C(F)(F)F)c3)c(OCc3cc(Cl)ccc3F)n2)CC1 [compound 133, 4-((4-((5-Chloro-2-fluorobenzyl)oxy)-2-(4-methylpiperazin-1-yl)pyrimidin-5-yl)thio)-2-(trifluoromethyl)benzamide] | < 200
CN1CCN(c2ncc(Sc3ccc(C(N)=O)c(C(F)(F)F)c3)c(OCc3ccc(F)c(Br)c3)n2)CC1 [compound 134, 4-((4-((3-Bromo-4-fluorobenzyl)oxy)-2-(4-methylpiperazin-1-yl)pyrimidin-5-yl)thio)-2-(trifluoromethyl)benzamide] | 200 to 400
